These results are taken from ChEMBL document CHEMBL3507680, “University of Dundee, Gates Library screen for HepG2 cell viability”.

Structures are written as SMILES.

The series in a line: Human HepG2 cell viability assay in 384 well format. The series is classed as toxicity, cell-based. More on the design: dose 125 nL, time 70.5 hour; cytotoxicity at 70.5 h: concentration not given beside the values. The note with it: HepG2 cells, read-out: Inhibition.
Consider `N[C@H]1CC[C@@H](n2cc(C(=O)NC3CCc4ccccc4C3)nn2)CC1` (stereo partly drawn), for which the cytotoxicity at 70.5 h is -11.5%.

Take `CN(Cc1ccccc1)S(=O)(=O)N1C[C@@H](C(=O)O)[C@H](C2CC2)C1`: the cytotoxicity at 70.5 h was -6.58%.

For `C[C@@H]1CN(Cc2cccnc2)C[C@]1(C)O`, the cytotoxicity at 70.5 h is -15.2%.

For the compound `Oc1cccc(CN2C[C@H]3CC[C@@H]2CN(Cc2ccc(F)cc2)C3)c1`, the cytotoxicity at 70.5 h was -1.41%.

`CN1CCN(Cc2ccccc2Oc2ccc(C(N)=O)cn2)CC1`: the cytotoxicity at 70.5 h was -6.47%.

In the case of `Cc1n[nH]c(C)c1CC(=O)N1CC[C@@](C)(O)[C@@H](Cc2ccccc2)C1`, the cytotoxicity at 70.5 h was -16.1%.

Regarding `CCCNc1ncc(CN2C[C@H]3CC[C@@H]2CN(C2CCOCC2)C3)cn1`, the cytotoxicity at 70.5 h was determined as 2.68%.

On to `CN(CCn1cnc(-c2ccccc2)c1-c1ncc[nH]1)S(C)(=O)=O`, for which the cytotoxicity at 70.5 h was found to be 7.51%.

For the compound `c1ccc2c(c1)cnn2CCCNC1CCOC2(CCOCC2)C1` (stereo not drawn), the cytotoxicity at 70.5 h is -13.6%.

In the case of `CCO[C@H]1CN(C)C[C@@H]1NC(=O)c1c[nH]nc1C1CCCCC1`, the cytotoxicity at 70.5 h came out at 21.2%.

As to `CC(C)(CNc1cccc(Cl)c1)NC(=O)C1CCCN(CC(N)=O)C1` (stereo not drawn), the cytotoxicity at 70.5 h was -8.71%.

As for `CN1CCC(N(CCc2ccccc2)C(=O)c2ccc(C#N)cc2)CC1`, the cytotoxicity at 70.5 h is -7.31%.

In the case of `O=C(O)c1cc(-n2cc3c(n2)CCC3)cc(S(=O)(=O)N2CCOCC2)c1`, the cytotoxicity at 70.5 h stood at 3.53%.

For the compound `Cc1nc(C(C)C)sc1C(=O)NCCSc1nccn1C`, the cytotoxicity at 70.5 h was -10.1%.

On to `CCC1CN(Cc2nc(C(C)C)no2)CCC(=O)N1Cc1ccccc1` (stereo not drawn), for which the cytotoxicity at 70.5 h was 22.7%.

As to `Cc1ccnc(NC(=O)c2ccc(C)o2)c1`, the cytotoxicity at 70.5 h is 12.1%.

Take `CCOc1cccc(CN2CCCn3nc(CNS(C)(=O)=O)cc3C2)c1`: the cytotoxicity at 70.5 h was -9.54%.

`CN(C)C(=O)CN1CCC(c2nnc(Cn3cccn3)n2C2CC2)CC1`: the cytotoxicity at 70.5 h was -12%.

Regarding `Cc1cc(C)n(CC(=O)N2C[C@@H]3CC[C@H](C2)N(CC2CCC2)C3)c(=O)n1`, the cytotoxicity at 70.5 h was found to be 24.1%.

In the case of `CC(C)c1nc(N2CCC(N3CCCCCC3)CC2)c2cnn(C)c2n1`, the cytotoxicity at 70.5 h was 13%.

As to `O=C(NCc1ccc(C(=O)N2CCCC2)cc1)c1cn2c(n1)CNCC2`, the cytotoxicity at 70.5 h is -3.69%.

Turning to `CC(=O)NCCc1cn(-c2cc(F)ccc2C)cn1`, the cytotoxicity at 70.5 h was -8.56%.

As for `COc1cccc2c1OCC(Cc1ccc(N)nc1C)C2` (stereo not drawn), the cytotoxicity at 70.5 h was -1.03%.

As for `CCCc1ccc(CN2C[C@H]3C(=O)N(CC4CC4)C[C@@]3(C(=O)O)C2)o1`, the cytotoxicity at 70.5 h was -6.58%.

Take `CC(C)N1CCCC2(CCN(Cc3nncn3C(C)C)C2)C1=O` (stereo not drawn): the cytotoxicity at 70.5 h is -0.727%.

For `COCCc1noc(CN(C)C(=O)C(C)N2CCc3ccccc3C2)n1` (stereo not drawn), the cytotoxicity at 70.5 h was -9.3%.

As for `CCn1ncc2[nH]c(-c3cc(OC)c(OC)cc3OC)nc21`, the cytotoxicity at 70.5 h came to 29.7%.

Regarding `Cc1cc(CNCc2c(C)n(CC(C)C)c3ccccc23)[nH]n1`, the cytotoxicity at 70.5 h is -5.55%.

As for `Cc1nn(C)c2nc(N(Cc3ccccn3)CC3CCCO3)sc12` (stereo not drawn), the cytotoxicity at 70.5 h is 17.1%.

As to `Cc1noc(-c2ccc(N3CCN(Cc4ncccc4C)CC3)nc2)n1`, the cytotoxicity at 70.5 h was -7.47%.

As to `Cc1csc2ncnc(N3CCC(Cn4cc(C(C)(C)O)nn4)CC3)c12`, the cytotoxicity at 70.5 h came to 5.18%.

Take `CCOCc1nc(CSc2ccncc2)n(C2CCN(C)CC2)n1`: the cytotoxicity at 70.5 h turned out to be 13%.

For `CC(C)Cc1cc(C(=O)N2CCC[C@H]2C(=O)N2CCOCC2)on1`, the cytotoxicity at 70.5 h is -9.69%.

Regarding `CCc1nccn1CCC(=O)N1CC[C@H](CO)[C@H](O)C1`, the cytotoxicity at 70.5 h is -10.2%.

For `Cc1ncsc1CN1C[C@H]2CC[C@@H]1CN(Cc1ccccc1)C2`, the cytotoxicity at 70.5 h was 30%.

For `O=c1[nH]nc(C2CC2)n1-c1cccc(Cl)c1`, the cytotoxicity at 70.5 h was -4.41%.

Regarding `COCCOC(=O)N1CCC(c2nccn2CC2CC2)CC1`, the cytotoxicity at 70.5 h is -4.36%.

For the compound `Cc1nncn1CCN1C(=O)CC2(CCCC2)CC1=O`, the cytotoxicity at 70.5 h was -7.54%.
